One assay deals with TIC cells. The assay can be described thus: TIC cell proliferation (micrograph). The assay is classed as cell-based. Conditions: 5 μM ICM versus DMSO (FIG. 14E). The protocol: Cell culture, Cell transfection:HEK293T, Hela, Hep3B and MHCC97H cells were cultured and transfected using X-tremeGENE™ HP DNA transfection reagent (Roche) as described previously. CGR8 ES cells were cultured on 0.1% gelatin coated tissue-culture dish in knockout DMEM medium containing 15% ES qualified-Fetal Bovine Serum, 2 mM L-glutamin, 0.1 mM NEAA, 0.1 mM β-mercaptoethanol, 50 μg/ml penicillin-streptomycin and 10 ng/ml Leukemia inhibitory factor (LIF). TIC cells were cultured in DMEM-F12 medium containing Embryomax nucleotides, 2 mM L-glutamin, 0.1 mM NEAA, 20 ng/ml mouse EGF, 50 μg/ml penicillin-streptomycin and […].
FIG. 14A is Left, Western blot of HMGB2 and SOX2 protein in HEK293T cells transfected with 0.5 μg […] expression plasmid and 0, 1 or 2 μg Flag-HMGB2 expression plasmid. Right, Western blot of HMGB2 and OCT4 protein in HEK293T cells transfected with 0.5 μg HA-OCT4 expression plasmid and 0, 1 or 2 μg Flag-HMGB2 expression plasmid. […] CGR8 cells were lysed, co-immunoprecipitated with OCT4 antibody, followed by Western blot with HMGB2 or OCT4 antibodies. FIG. 14 C is a luciferase reporter assay. HepG2 cells were infected with AAV8-GFP or AAV8-HMGB2 24 hrs before being transfected with 6*OS luciferase reporter and OCT4, SOX2 expression plasmids alone or in combination.

The next assay addresses T1, HMGB1 protein (Mus musculus, UniProt P63158).
T1 construct: Total protein lysates were prepared from livers and cells in lysis buffer; from tissue; host or cells: mouse liver
T1 sequence (P63158 1-215): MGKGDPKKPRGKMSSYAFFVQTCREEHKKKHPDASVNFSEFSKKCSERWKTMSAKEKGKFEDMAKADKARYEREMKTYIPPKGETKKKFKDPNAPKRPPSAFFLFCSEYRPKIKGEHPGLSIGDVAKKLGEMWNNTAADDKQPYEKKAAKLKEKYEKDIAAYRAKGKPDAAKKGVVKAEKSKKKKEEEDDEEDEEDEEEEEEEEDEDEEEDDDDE
Description: Western blot of HMGB1 protein in liver of CCl4-treated mice. The format is in vivo. The conditions noted are these: CCl4+ICM (FIG. 16). The protocol: Animal Care: All animal care and experimental procedures were approved by the Institutional Animal Care and Use Committee at the University of Connecticut. Shp^−/− mice were described previously. Hmgb2^−/− mice were obtained from Dr. Stella Tsirka at Stony Brook University. C57BL/6J mice were purchased from Jackson Laboratory. All mice were maintained on a 12-h light/dark cycle with free access to food and water unless otherwise indicated. For CCl4 treatment, CCl4 (Sigma) was dissolved in corn oil and administered to mice at a dose of 850 μl/kg BW by intraperitoneal injection (IP) twice a week for 6 or 10 weeks with or without ICM. Age-matched control mice were treated with a corn oil vehicle. For CCl4+ICM treatment, mice were treated with CCl4 for 2 weeks and then ICM (Department of Pharmaceutical Sciences at UConn) was dissolved in PEG (Sigma) and treated with mice (10 mg/kg) every day for 4 or 8 weeks in combination with CCl4. To induce overexpression of HMGB2 in liver, AAV8-Hmgb2 or a control AAV8-GFP was given to mice by tail vein injection at a dose of 5×10^10 GC. To knockdown HMGB2 in mouse livers, AAV-shHmgb2 or a control AAV-shGFP was delivered to mice at a dose of 2×10^10 GC by tail vein injection. One week later, mice injected with AAVs were treated with CCl4 or CCl4 +ICM as described above and sacrificed. […]
On the technique in general: A western blot detects proteins with antibodies after separation by electrophoresis.

For the next assay, the target named is T2, HMGB2 (Homo sapiens, UniProt P26583).
T2 sequence (P26583 1-209): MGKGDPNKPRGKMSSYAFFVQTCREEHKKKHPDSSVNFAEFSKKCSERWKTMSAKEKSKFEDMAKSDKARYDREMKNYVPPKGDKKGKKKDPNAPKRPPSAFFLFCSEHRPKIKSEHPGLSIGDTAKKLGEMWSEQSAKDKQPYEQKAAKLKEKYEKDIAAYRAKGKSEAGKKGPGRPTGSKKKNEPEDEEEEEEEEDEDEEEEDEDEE
Description: Co-immunoprecipitation of acetylated / phosphorylated HMGB2 in LX-2 cells. The assay is classed as cell-based. The arrangement: Total protein lysates were prepared from livers and cells in lysis buffer; endogenous in cells; host or cells: LX-2. Conditions: CCl4 and ICM for 24 hours (FIG. 5D). The protocol:
Co-immunoprecipitation experiments: LX-2 cells were transfected with a vector expressing HA-CBP with X-treineGENE™ transfection reagent (Sigma). 24 hours later, cells were treated with CCl4 and ICM for 24 hours. Cells then washed 2 times with cold phosphate buffered saline (PBS), lysed in buffer (50 mM Tris HCl, pH 7.4, 150 mM NaCl, 1 mM EDTA, and 1% TRITON X-1.00, and protease inhibitor). Protein extracts were incubated with anti-phosphoserin antibody or anti-acetylated lysin antibody (Cell signaling technology) overnight at 4° C. Protein A/G beads were added to the supernatants and incubated for 4 hours at 4° C. The beads were washed five times in NP-40 lysis buffer. Immune complexes were eluted by SDS—sample buffer, resolved on 10% SDS-PAGE and proceeded for immunoblotting with the indicated antibody.

Structures are written as SMILES.

This is an account of results in patent US20180320177A1, “COMPOSITIONS AND METHODS FOR THE TREATMENT OF LIVER FIBROSIS” (UNIVERSITY OF CONNECTICUT, priority 2015, published 2018).

In the case of `CC1(C)Oc2cc(O)ccc2C2C1=CCn1c(=O)n(-c3ccccc3)c(=O)n12` (stereo not shown) [ICM, inflachromene], in the assay with TIC cells, the TIC cell proliferation result was “decreases TIC cell proliferation”. On HMGB1 protein, the HMGB1 protein entry is “less effect on HMGB1 protein”. On HMGB2, the “HMGB2 phosphorylation by CCl4” value was “decreases”. Besides, the “HMGB2 acetylation by CBP/CCl4” value at HMGB2 (HA-CBP) is “decreases”.
